This is an account of results in patent publication US20250296971A1, “GASTRIC INHIBITORY PEPTIDE RECEPTOR LIGANDS” (priority 2021, published 2025).

*1 amine or outer side, *2 acyl side, *3 side chain or, on linkers, in order; H or OH if unused. Where a SMILES comes first, the peptide text is derived from it. Bridges are numbered along the chain shown (N, C = ends). [ ]: non-standard residue; d: D form. The star is where a group is joined. Pro(trans-4-NH2) = O=C([C@@H]1C[C@@H](N[*:3])CN1[*:1])[*:2]; DOTA = O=C(O)CN1CCN(CC(=O)O)CCN(CC(=O)*)CCN(CC(=O)O)CC1; Trp(5-Cl) = N[C@@H](Cc1c[nH]c2ccc(Cl)cc12)C(=O)O; Pyridine(2,6-diCH2) = c1cc(C[*:1])nc(C[*:2])c1; Phe(2-Cl) = N[C@@H](Cc1ccccc1Cl)C(=O)O; 1Nal = N[C@@H](Cc1cccc2ccccc12)C(=O)O; mXylylene = c1cc(C[*:1])cc(C[*:2])c1; Hyp = O=C(O)[C@@H]1C[C@@H](O)CN1; hLeu = CC(C)CC[C@H](N)C(=O)O; Api = NC1(C(=O)O)CCNCC1; Thp = NC1(C(=O)O)CCOCC1; Aib = CC(C)(N)C(=O)O

The assay concerns the target T1, GIPR (CHO-K1-hGIPR cells) (Homo sapiens, UniProt P48546).
T1 construct: host or cells: CHO-K1
T1 sequence (P48546 22-466): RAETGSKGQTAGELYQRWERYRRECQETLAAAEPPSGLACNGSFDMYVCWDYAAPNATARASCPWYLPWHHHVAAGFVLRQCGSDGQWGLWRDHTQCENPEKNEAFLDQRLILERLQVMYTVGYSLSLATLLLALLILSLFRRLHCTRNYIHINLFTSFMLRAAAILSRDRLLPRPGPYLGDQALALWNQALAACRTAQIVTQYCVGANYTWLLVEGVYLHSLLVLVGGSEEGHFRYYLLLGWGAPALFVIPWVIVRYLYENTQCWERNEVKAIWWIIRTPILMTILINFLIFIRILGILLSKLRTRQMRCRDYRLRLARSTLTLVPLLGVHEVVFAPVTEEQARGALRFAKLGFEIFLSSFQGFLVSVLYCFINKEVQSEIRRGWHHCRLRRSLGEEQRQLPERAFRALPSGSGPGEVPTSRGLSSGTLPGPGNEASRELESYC
Briefly: FACS binding assay. The following applies: competition with 20 nM GIP-057, 4° C. for 1 hour, read-out: pIC50 Category (converted). Put shortly:
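Steps: detach CHO-K1-hGIPR cells (Accutase); wash in PBS/1% FCS; adjust to 500.000 cells per mL; wash ice-cold; incubate APC-streptavidin 1 μg/mL, 30 min on ice; wash twice; acquire on flow cytometer; fit MFI-concentration data with a four-parameter logistic model.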
Background: Flow cytometry measures light scatter and fluorescence of single cells or particles in a stream.
Take `CC(=O)N[C@@H](CC(=O)O)C(=O)N[C@@H](Cc1c[nH]c2ccccc12)C(=O)N[C@@H](Cc1c[nH]c2ccc(Cl)cc12)C(=O)N1C[C@H](O)C[C@H]1C(=O)N[C@@H](CCC(=O)O)C(=O)N[C@H](CC(C)C)C(=O)N[C@H]1CSCc2cccc(n2)CSC[C@@H](C(=O)N[C@H](CCCCNC(=O)CN2CCN(CC(=O)O)CCN(CC(=O)O)CCN(CC(=O)O)CC2)C(N)=O)NC(=O)[C@H](Cc2ccccc2)NC(=O)[C@H](CC(C)C)NC(=O)C2(CCOCC2)NC1=O` [GIP-389, Ac-Asp-Trp-5Clw-Hyp-Glu-leu-[Cys(2Lut)-Thp-Leu-Phe-Cys]-lys (DOTA)-NH2] (Ac-DW[Trp(5-Cl)][Hyp]E[dL]C[Thp]LFC[dK](DOTA)-NH2; linker 7-11 via Pyridine(2,6-diCH2)): the IC50 was 10 to 79.4 nM. The value for `CC[C@H](C)[C@@H]1NC(=O)[C@H](CC(C)C)NC(=O)C2(CCOCC2)NC(=O)[C@@H](NC(=O)[C@@H](CC(C)C)NC(=O)[C@H](CCC(=O)O)NC(=O)[C@@H]2C[C@@H](NC(=O)CN3CCN(CC(=O)O)CCN(CC(=O)O)CCN(CC(=O)O)CC3)CN2C(=O)[C@H](Cc2c[nH]c3ccc(Cl)cc23)NC(=O)[C@H](Cc2ccccc2Cl)NC(=O)[C@H](CC(=O)O)NC(C)=O)CSCc2cccc(n2)CSC[C@@H](C(N)=O)NC1=O` [GIP-390, Ac-Asp-Ocf-5Clw-Tap (DOTA)-Glu-leu-[Cys(2Lut)-Thp-Leu-Ile-Cys]-NH2] (Ac-D[Phe(2-Cl)][Trp(5-Cl)][Pro(trans-4-NH2)](DOTA)E[dL]C[Thp]LIC-NH2; linker 7-11 via Pyridine(2,6-diCH2)) was 10 to 79.4 nM; that for `CC(=O)N[C@@H](CC(=O)O)C(=O)N[C@@H](Cc1c[nH]c2ccccc12)C(=O)N[C@@H](Cc1c[nH]c2ccc(Cl)cc12)C(=O)N1C[C@H](NC(=O)CN2CCN(CC(=O)O)CCN(CC(=O)O)CCN(CC(=O)O)CC2)C[C@H]1C(=O)N[C@@H](CCC(=O)O)C(=O)N[C@H](CC(C)C)C(=O)N[C@H]1CSCc2cccc(n2)CSC[C@@H](C(N)=O)NC(=O)[C@H](Cc2ccccc2)NC(=O)[C@H](CC(C)C)NC(=O)C2(CCOCC2)NC1=O` [GIP-391, Ac-Asp-Trp-5Clw-Tap (DOTA)-Glu-leu-[Cys(2Lut)-Thp-Leu-Phe-Cys]-NH2] (Ac-DW[Trp(5-Cl)][Pro(trans-4-NH2)](DOTA)E[dL]C[Thp]LFC-NH2; linker 7-11 via Pyridine(2,6-diCH2)) was 10 to 79.4 nM; that for `CC[C@H](C)[C@@H]1NC(=O)[C@H](CC(C)C)NC(=O)C2(CCN(C(=O)CN3CCN(CC(=O)O)CCN(CC(=O)O)CCN(CC(=O)O)CC3)CC2)NC(=O)[C@@H](NC(=O)[C@@H](CC(C)C)NC(=O)[C@H](CCC(=O)O)NC(=O)[C@@H]2C[C@@H](O)CN2C(=O)[C@H](Cc2c[nH]c3ccc(Cl)cc23)NC(=O)[C@H](Cc2ccccc2Cl)NC(=O)[C@H](CC(=O)O)NC(C)=O)CSCc2cccc(n2)CSC[C@@H](C(N)=O)NC1=O` [GIP-392, Ac-Asp-Ocf-5Clw-Hyp-Glu-leu-[Cys(2Lut)-Apc(DOTA)-Leu-Ile-Cys]-NH2] (Ac-D[Phe(2-Cl)][Trp(5-Cl)][Hyp]E[dL]C[Api](DOTA)LIC-NH2; linker 7-11 via Pyridine(2,6-diCH2)) was 10 to 79.4 nM. On to `CC(=O)N[C@@H](CC(=O)O)C(=O)N[C@@H](Cc1c[nH]c2ccccc12)C(=O)N[C@@H](Cc1c[nH]c2ccc(Cl)cc12)C(=O)N1C[C@H](O)C[C@H]1C(=O)N[C@@H](CCC(=O)O)C(=O)N[C@H](CC(C)C)C(=O)N[C@H]1CSCc2cccc(n2)CSC[C@@H](C(N)=O)NC(=O)[C@H](Cc2ccccc2)NC(=O)[C@H](CC(C)C)NC(=O)C2(CCN(C(=O)CN3CCN(CC(=O)O)CCN(CC(=O)O)CCN(CC(=O)O)CC3)CC2)NC1=O` [GIP-393, Ac-Asp-Trp-5Clw-Hyp-Glu-leu-[Cys(2Lut)-Apc(DOTA)-Leu-Phe-Cys]-NH2] (Ac-DW[Trp(5-Cl)][Hyp]E[dL]C[Api](DOTA)LFC-NH2; linker 7-11 via Pyridine(2,6-diCH2)), for which the IC50 was 10 to 79.4 nM. `CC[C@H](C)[C@@H]1NC(=O)[C@H](CC(C)C)NC(=O)C(C)(C)NC(=O)[C@@H](NC(=O)[C@H](CCC(C)C)NC(=O)[C@H](CCC(=O)O)NC(=O)[C@@H]2C[C@@H](NC(=O)CN3CCN(CC(=O)O)CCN(CC(=O)O)CCN(CC(=O)O)CC3)CN2C(=O)[C@H](Cc2cccc3ccccc23)NC(=O)[C@H](Cc2c[nH]c3ccccc23)NC(=O)[C@H](CC(=O)O)NC(C)=O)CSCc2cccc(c2)CSC[C@@H](C(N)=O)NC1=O` [GIP-394, Ac-Asp-Trp-1Ni-Tap(DOTA)-Glu-Hle-[Cys(3MeBn)-Aib-Leu-Ile-Cys]-NH2] (Ac-DW[1Nal][Pro(trans-4-NH2)](DOTA)E[hLeu]C[Aib]LIC-NH2; linker 7-11 via mXylylene): the IC50 was 10 to 79.4 nM. For the compound `CC[C@H](C)[C@@H]1NC(=O)[C@H](CC(C)C)NC(=O)C2(CCOCC2)NC(=O)[C@@H](NC(=O)[C@@H](CC(C)C)NC(=O)[C@H](Cc2ccccc2)NC(=O)[C@@H]2C[C@@H](O)CN2C(=O)[C@H](Cc2c[nH]c3ccc(Cl)cc23)NC(=O)[C@H](Cc2c[nH]c3ccccc23)NC(=O)[C@H](CC(=O)O)NC(C)=O)CSCc2cccc(n2)CSC[C@@H](C(N)=O)NC1=O` [GIP-396, Ac-Asp-Trp-5Clw-Hyp-Phe-leu-[Cys(2Lut)-Thp-Leu-Ile-Cys]-NH2] (Ac-DW[Trp(5-Cl)][Hyp]F[dL]C[Thp]LIC-NH2; linker 7-11 via Pyridine(2,6-diCH2)), the IC50 was 10 to 79.4 nM.

As for `CC[C@H](C)[C@@H]1NC(=O)[C@H](CC(C)C)NC(=O)C2(CCOCC2)NC(=O)[C@@H](NC(=O)[C@@H](CC(C)C)NC(=O)[C@H](Cc2c[nH]c3ccccc23)NC(=O)[C@@H]2C[C@@H](O)CN2C(=O)[C@H](Cc2c[nH]c3ccc(Cl)cc23)NC(=O)[C@H](Cc2c[nH]c3ccccc23)NC(=O)[C@H](CC(=O)O)NC(C)=O)CSCc2cccc(n2)CSC[C@@H](C(N)=O)NC1=O` [GIP-397, Ac-Asp-Trp-5Clw-Hyp-Trp-leu-[Cys(2Lut)-Thp-Leu-Ile-Cys]-NH2] (Ac-DW[Trp(5-Cl)][Hyp]W[dL]C[Thp]LIC-NH2; linker 7-11 via Pyridine(2,6-diCH2)), the IC50 was 10 to 79.4 nM. In the case of `CC[C@H](C)[C@@H]1NC(=O)[C@H](CC(C)C)NC(=O)C2(CCOCC2)NC(=O)[C@@H](NC(=O)[C@@H](CC(C)C)NC(=O)[C@@H]2CCCN2C(=O)[C@@H]2C[C@@H](O)CN2C(=O)[C@H](Cc2c[nH]c3ccc(Cl)cc23)NC(=O)[C@H](Cc2c[nH]c3ccccc23)NC(=O)[C@H](CC(=O)O)NC(C)=O)CSCc2cccc(n2)CSC[C@@H](C(N)=O)NC1=O` [GIP-398, Ac-Asp-Trp-5Clw-Hyp-Pro-leu-[Cys(2Lut)-Thp-Leu-Ile-Cys]-NH2] (Ac-DW[Trp(5-Cl)][Hyp]P[dL]C[Thp]LIC-NH2; linker 7-11 via Pyridine(2,6-diCH2)), the IC50 is 10 to 79.4 nM. Regarding `CC[C@H](C)[C@@H]1NC(=O)[C@H](CC(C)C)NC(=O)C2(CCOCC2)NC(=O)[C@@H](NC(=O)[C@@H](CC(C)C)NC(=O)[C@H](CCC(=O)O)NC(=O)[C@@H]2C[C@@H](O)CN2C(=O)[C@H](Cc2c[nH]c3ccc(Cl)cc23)NC(=O)[C@H](Cc2ccccc2Cl)NC(=O)[C@H](CC(=O)O)NC(C)=O)CSCc2cccc(n2)CSC[C@@H](C(=O)N[C@H](CCCCNC(=O)CN2CCN(CC(=O)O)CCN(CC(=O)O)CCN(CC(=O)O)CC2)C(N)=O)NC1=O` [GIP-399, Ac-Asp-Ocf-5Clw-Hyp-Glu-leu-[Cys(2Lut)-Thp-Leu-Ile-Cys]-lys(DOT A)-NH2] (Ac-D[Phe(2-Cl)][Trp(5-Cl)][Hyp]E[dL]C[Thp]LIC[dK](DOTA)-NH2; linker 7-11 via Pyridine(2,6-diCH2)), the IC50 is 100 to 794 nM.
